Results from patent US20230060425A1, “FUSED BICYCLIC HETEROCYCLE DERIVATIVES AS PESTICIDES” (Bayer Aktiengesellschaft, priority 2019, published 2023).

Key:
Assay type in all cases: in vivo
Spodoptera frugiperda = Spodoptera frugiperda spray test; details: foliar, 168 h, application rate 100 g/ha, maize leaf discs, after 7 days, read-out: efficacy
Protocol: Spodoptera frugiperda—Spray Test
Solvent: • 78.0 parts by weight of acetone • 1.5 parts by weight of dimethylformamide
Emulsifier: alkylaryl polyglycol ether
To produce further test concentrations, the formulation is diluted with emulsifier-containing water.
After 7 days, the efficacy in % is determined. 100% means that all the caterpillars have been killed; 0% means that no caterpillar has been killed.

Myzus persicae [1] = experiment: Myzus persicae oral test; details: 120 h, application rate 4 ppm, after 5 days, read-out: efficacy
How it was run: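 Aphid feeding test: compound dissolved in acetone, diluted with water and mixed with IPL41 insect medium plus sugar, offered through parafilm to a mixed population of green peach aphids. Mortality scored after 5 days as % efficacy (100% = all aphids dead, 0% = none dead).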

Phaedon cochleariae = Phaedon cochleariae spray test; details: foliar, 168 h, application rate 100 g/ha, Chinese cabbage leaf discs, after 7 days, read-out: efficacy
How it was run: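 Chinese cabbage leaf discs sprayed with compound formulated in acetone/DMF and emulsifier-containing water, then infested with mustard beetle larvae after drying. Efficacy read after 7 days as % larvae killed.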

Myzus persicae [2] = experiment: Myzus persicae spray test; details: foliar, 120 h, application rate 100 g/ha, Chinese cabbage leaf discs, after 5 days, read-out: efficacy
How it was run: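 Chinese cabbage leaf discs infested with all stages of Myzus persicae were sprayed with compound in acetone/DMF, diluted in water containing 1000 ppm emulsifier. Efficacy in % assessed after 5 days: 100% all aphids killed, 0% none killed.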

Lucilia cuprina = Lucilia cuprina test; details: application rate 100 ppm; L1 larvae; after 2 days
Protocol: (§1) Solvent: Dimethyl sulfoxide
To produce a suitable active compound formulation, 10 mg of active compound are mixed with 0.5 ml of dimethyl sulfoxide, and the concentrate is diluted with water to the desired concentration.
About 20 L1 larvae of the Australian sheep blowfly (Lucilia cuprina) are transferred into a test vessel containing minced horsemeat and the active compound formulation of the desired concentration.
After 2 days, the kill in % is determined. 100% means that all the larvae have been killed; 0% means that no larvae have been killed.

Boophilus microplus = Boophilus microplus injection test; details: application rate 20 μg/animal, after 7 days, laying of fertile eggs
Protocol: Boophilus microplus—Injection Test
as §1
To produce a suitable active compound formulation, 10 mg of active compound are mixed with 0.5 ml of solvent and the concentrate is diluted to the desired concentration with solvent.
1 μl of the active compound solution is injected into the abdomen of 5 engorged adult female cattle ticks (Boophilus microplus). The animals are transferred into dishes and kept in a climate-controlled room.
Efficacy is assessed after 7 days by laying of fertile eggs. Eggs which are not visibly fertile are stored in a climate-controlled cabinet until the larvae hatch after about 42 days. An efficacy of 100% means that none of the ticks has laid any fertile eggs; 0% means that all the eggs are fertile.

Ctenocephalides felis = Ctenocephalides felis oral test; details: 48 h, application rate 100 ppm, in citrated cattle blood, after 2 days, read-out: efficacy (kill in %)
How it was run: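 Adult unfed cat fleas (~20 per chamber) fed through parafilm membrane on citrated cattle blood containing compound (DMSO formulation diluted in blood to test concentration). Kill (%) scored after 2 days; 100% = all fleas dead, 0% = none.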

CCS(=O)(=O)c1c(-c2nc3cc(C(F)(F)F)cnc3n2C)ncc2cc(Cl)ccc12 [Example I-010]
pest or weed control at 100 g/ha (Spodoptera frugiperda): 100%
pest or weed control at 4 ppm (Myzus persicae [1]): 100%
pest or weed control at 100 g/ha (Phaedon cochleariae): 100%
pest or weed control at 100 g/ha (Myzus persicae [2]): 100%
efficacy (kill in %) (Lucilia cuprina): 100%
efficacy (Boophilus microplus): 80%
pest or weed control at 100 ppm (Ctenocephalides felis): 100%
